Assay results published in US20050100903A1, “Screening method” (priority 2001, published 2005).

Columns and labels:
[1] = tested on: CEACAM-1 expression in HT29 cells; experiment: Western Blot of CEACAM expression in HT29 colon carcinoma cells; format: cell-based, human; details: HT29, 10 ng/ml, 6 hours
Procedure: HT29 colon carcinoma cells were incubated for 6 hours with TNF-α (10 ng/ml). The cells were examined microscopically for vitality, then lysed, their total protein isolated and separated electrophoretically. 8 μg protein was separated per lane. An anti-CEA antibody and an anti-mouse-HRP-coupled secondary antibody (Dianova, Hamburg, Germany) were used for detection. A cross-reacting anti-CEA antibody was chosen to investigate the selectivity of candidate substances for the expression of individual antigens. The selectivity of the substance effects is important since CEACAM-1 and CEACAM-7/CEA and CEACAM-6 can have antagonistic effects on apoptosis.
The proportionality of expression of individual CEACAMs can be quantified in Western Blot after densitometric evaluation (e.g., public domain NIH software IMAGE 1.6.1). The antigens are identified in the Western Blot through assignment to relative molar mass. The molecular size of the individual CEACAMs is described in the literature. The Western Blot was normalized with β-actin (Sigma-Aldrich, Taufkirchen, Germany). This blot (FIG. 6) was subsequently evaluated densitometrically using the NIH Image Software 1.6.1.
200 nM wortmannin (Calbiochem-Novabiochem, Nottingham, UK) was incubated with 1×10^6 cells/well (6-well plate) for 3, 8 or 24 hours. […]

HT29 cells = experiment: Apoptosis in HT29 cells with or without γ-interferon stimulation, with antibody cross-linking; format: cell-based, human; details: addition over a short period (500 U/ml, 6 hours)
Procedure: HT29 cells were treated for 6 hours with 500 U/ml γ-interferon. The procedure was also run without interferon stimulation. After change of medium, the cells were treated with primary antibodies as in Example 4. These were: mAb 4D1C2 (anti-CEACAM-1 at 4 μg/ml) or irrelevant mAb 7D11 (anti-β-catenin at 1 μg/ml). A test run without antibody was used as a second negative control.
After medium change, secondary antibody (anti-mouse at 15 μg/ml) was added. After a total experiment duration of 80-96 hours, the level of apoptosis was determined using standard propidium iodide staining or the apoptosis ELISA of ROCHE Molecule Systems, strictly in accordance with the instructions of the manufacturer. All experiments were performed in triplicate and repeated 3× independently. The Wilcoxon signed ranks test was used to assess the significance of the data.

Substance | Influence on other proteins of the CEACAM family [1] | Upregulation of CEACAM-1 compared to the untreated sample ([1]; densitometry of Western Blot normalized with β-actin) | CEACAM-1 production in HT29 cells (HT29 cells)
TNF-α | without influencing | approximately 2 fold | –
gamma-interferon: gamma-interferon, stimulates HT29 cells to produce CEACAM-1 | – | – | stimulates
